Laboratory results published in patent publication US10456365B2, “Methods and formulations for supporting and promoting bone health” (Primus Pharmaceuticals, Inc., priority 2016, dated 2019).

Columns and labels:
Type in all cases: cell-based, mouse (C57BL/6)
[1] = test system: osteoblastic mineralization; assay: Mineralization in bone marrow culture
Protocol: C57BL/6 cells were prepared as 1×10^6/ml per well in 12-well plates. Cells were cultured in either the presence or absence of DMEM with mineralization medium containing ascorbic acid (100 μg/ml) and 4 mM β-glycerophosphate in DMEM with 10% FBS and 1% penicillin-steptomycin. […] After culture, the cells were washed and stained. After elution with 10% cetylpyridinium chloride solution, the absorbance at 570 nm on a microtiter plate reader.

[2] = test system: differentiation of bone marrow cells to adipocytes; assay: Adipogenesis in bone marrow cell culture
Protocol: C57BL/6 cells were prepared as 1×10^6/ml per well. These cells were cultured using 12-well plates in DMEM containing 10% FBS, 1% penicillin-steptomycin in the presence or absence of dexamethasone (1 μM/ml) and 3-isobutyl-q-methylxanthine (0.5 mM/ml) with either vehicle or β-Caryophyllene (0.1-100 μM). Medium was replaced containing insulin (10 μg/ml) without dexamethasone and 3-isobutyl-q-methylxanthine, with either the presence or absence of β-Caryophyllene (0.1-100 μM) for four days in CO2 incubator (37° C.). In other experiments, the cells were cultured without β-Caryophyllene for an additional four days. After culture, the adipocytes were stained and counted.
Bone marrow cells (1×10^6 cells/well/ml in 12-well plates) were cultured for 3 days in DMEM containing 10% FBS, 1% penicillin-streptomycin (P/S; 10,000 U/L) in the presence or absence of the differentiation medium (DM) [dexamethasone (1 μM/ml of medium) and 3-isobutyl-1-methylxanthine (IBMX; 0.5 mM/ml of medium)] with either vehicle or β-caryophyllene (0.1-100 μM). […] After culture, the medium was removed, and adipocytes were stained with Oil Red O. Adipocytes were counted by light microscopy. For quantification, the dye was extracted with 0.2 ml of isopropanol for 1 minute, and the absorbance (490 nm) was read using a Spectra Count microplate photometer.

osteoclastogenesis = assay: Osteoclastogenesis in bone marrow cell culture
Protocol: C57BL/6 cells were prepared as 2×10^5/ml per well in 24-well plates. Cells were cultured in DMEM with 10% FBS and 1% penicillin-steptomycin in water-saturated atmosphere containing 5% CO2 and 95% air at 37° C. Cells were cultured with or without Tumor necrosis factor-α (5 ng/ml) for 3 days in the presence or absence of β-Caryophyllene (0.1-100 μM). Medium was replaced and cultures were maintained for an additional 4 days. In other experiments, the cells were cultured for 3 days and then placed in medium without β-Caryophyllene for an additional 4 days. Cells were stained with a marker enzyme of osteoclasts and washed with phosphate buffered sale solution and foxed with 10% neutralized formalin-phosphate for 10 minutes. The cells were stained with TRACP staining and incubated for 90 minutes. TRACP—positive cells containing three or more nuclei were counted as osteoclast-like cells.

Structure (SMILES): C=C1CC/C=C(\C)CC[C@@H]2[C@@H]1CC2(C)C [β-Caryophyllene]
- osteoblastic mineralization ([1]; 18 days, mineralization medium): stimulated osteoblastic mineralization
- osteoblastic mineralization ([1]; β-Caryophyllene for 7 days, then medium without it for additional 11 days): Stimulation was also seen
- differentiation of bone marrow cells to adipocytes ([2]; 0.1-100 μM, 7 days, differentiation medium with or without insulin (FIG. 1)): suppressed differentiation of from bone marrow cells to adipocytes
- differentiation of bone marrow cells to adipocytes ([2]; C57BL/6 cells cultured for 7 days with or without β-Caryophyllene): suppressed differentiation of bone marrow cells to adipocytes
- osteoclastogenesis (osteoclastogenesis; 7 days, medium containing Tumor necrosis factor-α): suppressed osteoclastogenesis
- osteoclastogenesis (osteoclastogenesis; cultured in Tumor necrosis factor-α with β-Caryophyllene, then without β-Caryophyllene for additional 4 days): also exhibited suppression of osteoclastogenesis
